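48-hour exposure; five concentrations; linearly interpolated endpoints. GI50 marks 50% less growth.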 Active and inactive are the calls of the source. Cut-off read from the data, not from the text of the source: active = GI50 up to about 1.1 µM and inactive = higher.
Tests used:
Experiment in all cases: growth of human tumour cells (NCI), 48 h
[1] = test system: SN12C
[2] = test system: MOLT-4
[3] = test system: NCI-H226
[4] = test system: SR
[5] = test system: NCI-H460
[6] = test system: LOX IMVI
[7] = test system: IGROV-1
[8] = test system: HCT-116
[9] = test system: K562
[10] = test system: SK-MEL-28
[11] = test system: RPMI-8226
[12] = test system: SW-620
[13] = test system: SF-295
[14] = test system: HCC 2998
[15] = test system: SNB-19
[16] = test system: UO-31
[17] = test system: COLO 205
[18] = test system: KM12
[19] = test system: A549
[20] = test system: NCI-H522

Structure (SMILES) | GI50 [1] | GI50 [2] | GI50 [3] | GI50 [4] | GI50 [5] | GI50 [6] | GI50 [7] | GI50 [8] | GI50 [9] | GI50 [10] | GI50 [11] | GI50 [12] | GI50 [13] | GI50 [14] | GI50 [15] | GI50 [16] | GI50 [17] | GI50 [18] | GI50 [19] | GI50 [20]
NC(=O)/C(=N\NC(=O)C[n+]1ccccc1)C1NC(=O)NC1=O (configuration not stated) | > 100 µM (inactive) | > 100 µM (inactive) | > 100 µM (inactive) | > 100 µM (inactive) | > 100 µM (inactive) | > 100 µM (inactive) | > 100 µM (inactive) | > 100 µM (inactive) | > 100 µM (inactive) | > 100 µM (inactive) | > 100 µM (inactive) | 33.6 µM (inactive) | > 100 µM (inactive) | > 100 µM (inactive) | > 100 µM (inactive) | > 100 µM (inactive) | 32.7 µM (inactive) | > 100 µM (inactive) | > 100 µM (inactive) | –
CCCC(=O)c1c(NOC2OC(COC(C)=O)C(OC(C)=O)C(OC(C)=O)C2OC(C)=O)nc(OC)n(C)c1=O (configuration not stated) | > 100 µM (inactive) | > 100 µM (inactive) | > 100 µM (inactive) | > 100 µM (inactive) | > 100 µM (inactive) | > 100 µM (inactive) | > 100 µM (inactive) | > 100 µM (inactive) | > 100 µM (inactive) | > 100 µM (inactive) | – | > 100 µM (inactive) | > 100 µM (inactive) | > 100 µM (inactive) | > 100 µM (inactive) | 6.1 µM (inactive) | > 100 µM (inactive) | > 100 µM (inactive) | > 100 µM (inactive) | > 100 µM (inactive)
Cc1cc(S(=O)(=O)Nc2nc(N)n(-c3cnc4ccccc4n3)n2)c(S)cc1Cl | > 100 µM (inactive) | – | 43.7 µM (inactive) | > 10 µM (inactive) | 36.6 µM (inactive) | > 100 µM (inactive) | > 100 µM (inactive) | > 100 µM (inactive) | > 100 µM (inactive) | > 100 µM (inactive) | – | > 100 µM (inactive) | – | > 100 µM (inactive) | 39.1 µM (inactive) | > 100 µM (inactive) | > 100 µM (inactive) | 60.4 µM (inactive) | > 100 µM (inactive) | > 100 µM (inactive)
C=CC(=O)Nc1ccc(NC(=O)C=C)c2c1C(=O)c1ccccc1C2=O | 35.8 µM (inactive) | 21.6 µM (inactive) | – | 28.1 µM (inactive) | > 100 µM (inactive) | 5.07 µM (inactive) | > 100 µM (inactive) | 62.8 µM (inactive) | 15.7 µM (inactive) | 33.5 µM (inactive) | 3.03 µM (inactive) | 26.4 µM (inactive) | 10.8 µM (inactive) | > 100 µM (inactive) | > 100 µM (inactive) | 46.1 µM (inactive) | > 100 µM (inactive) | 12 µM (inactive) | > 100 µM (inactive) | 16.6 µM (inactive)
CC(Cc1cccc2c1Nc1ccccc1S2)N(C)CCO (configuration not stated) | > 100 µM (inactive) | > 100 µM (inactive) | > 100 µM (inactive) | > 100 µM (inactive) | > 100 µM (inactive) | > 100 µM (inactive) | > 100 µM (inactive) | > 100 µM (inactive) | > 100 µM (inactive) | > 100 µM (inactive) | – | > 100 µM (inactive) | > 100 µM (inactive) | > 100 µM (inactive) | > 100 µM (inactive) | > 100 µM (inactive) | > 100 µM (inactive) | > 100 µM (inactive) | > 100 µM (inactive) | > 100 µM (inactive)
CCN(CC)CC(C)(C)C(=O)/C=C/c1cccc(/C=C/C(=O)C(C)(C)CN(CC)CC)c1 | 0.303 µM (active) | 0.27 µM (active) | 1.76 µM (inactive) | 0.305 µM (active) | 0.692 µM (active) | 0.184 µM (active) | 1.02 µM (active) | 0.361 µM (active) | 0.431 µM (active) | 1.42 µM (inactive) | 2.06 µM (inactive) | 0.187 µM (active) | 1.74 µM (inactive) | 1.22 µM (inactive) | 1.79 µM (inactive) | 1.75 µM (inactive) | 0.247 µM (active) | 0.471 µM (active) | 1.33 µM (inactive) | –
O=C1CCSc2c(cnc3ccccc23)N1 | > 100 µM (inactive) | > 100 µM (inactive) | 34.8 µM (inactive) | > 100 µM (inactive) | 89.7 µM (inactive) | 58.2 µM (inactive) | > 100 µM (inactive) | > 100 µM (inactive) | > 100 µM (inactive) | > 100 µM (inactive) | > 100 µM (inactive) | > 100 µM (inactive) | > 100 µM (inactive) | – | – | 60.7 µM (inactive) | > 100 µM (inactive) | > 100 µM (inactive) | > 100 µM (inactive) | > 100 µM (inactive)
C=CC1(C(=O)O)CCC(C(C)(C)C)CC1 (configuration not stated) | > 100 µM (inactive) | > 100 µM (inactive) | > 100 µM (inactive) | > 100 µM (inactive) | > 100 µM (inactive) | – | > 100 µM (inactive) | > 100 µM (inactive) | > 100 µM (inactive) | – | > 100 µM (inactive) | > 100 µM (inactive) | > 100 µM (inactive) | > 100 µM (inactive) | > 100 µM (inactive) | > 100 µM (inactive) | > 100 µM (inactive) | > 100 µM (inactive) | > 100 µM (inactive) | 86.1 µM (inactive)
CN(C)c1ccc(/C=c2/c3ccccc3n3nc4ccccc4c23)cc1 | 73.6 µM (inactive) | 17 µM (inactive) | – | 3.34 µM (inactive) | 30.1 µM (inactive) | 18.7 µM (inactive) | 22.1 µM (inactive) | 16.8 µM (inactive) | 9.53 µM (inactive) | 34.9 µM (inactive) | 10.7 µM (inactive) | 12.8 µM (inactive) | 13.2 µM (inactive) | – | 76.9 µM (inactive) | 39.6 µM (inactive) | 9.64 µM (inactive) | 30.7 µM (inactive) | 16.3 µM (inactive) | 5.71 µM (inactive)
Cc1oc2c(cc(O)c3cc(O)ccc32)c2cccc1-2 | > 100 µM (inactive) | > 100 µM (inactive) | – | 37 µM (inactive) | > 100 µM (inactive) | > 100 µM (inactive) | > 100 µM (inactive) | > 100 µM (inactive) | > 100 µM (inactive) | > 100 µM (inactive) | > 100 µM (inactive) | > 100 µM (inactive) | > 100 µM (inactive) | > 100 µM (inactive) | > 100 µM (inactive) | > 100 µM (inactive) | > 100 µM (inactive) | > 100 µM (inactive) | > 100 µM (inactive) | 35.2 µM (inactive)
C[C@@H]1C[C@@H]2C(=O)N(c3ccccc3)C(=O)[C@@H]2c2[nH]c3ccc(Br)cc3c21 | 41 µM (inactive) | 25 µM (inactive) | – | 42 µM (inactive) | 42.3 µM (inactive) | 96.8 µM (inactive) | 87.1 µM (inactive) | 30.2 µM (inactive) | 49.1 µM (inactive) | > 100 µM (inactive) | – | 35.5 µM (inactive) | 32.4 µM (inactive) | 51.1 µM (inactive) | 29.6 µM (inactive) | 45.9 µM (inactive) | > 100 µM (inactive) | 25.2 µM (inactive) | 33.6 µM (inactive) | 24 µM (inactive)
CCN1CCCC(Nc2cc(C)nc(NC(=N)Nc3ccc(Cl)c(Cl)c3)n2)C1 (configuration not stated) | 2.58 µM (inactive) | 0.658 µM (active) | – | 1.2 µM (inactive) | 1.26 µM (inactive) | – | 1.38 µM (inactive) | 1.26 µM (inactive) | 0.217 µM (active) | 1.77 µM (inactive) | 0.455 µM (active) | – | 1.07 µM (active) | 0.551 µM (active) | 2.14 µM (inactive) | 0.982 µM (active) | 1.27 µM (inactive) | 1.85 µM (inactive) | 1.91 µM (inactive) | 1.24 µM (inactive)
COc1cc2c(cc1OC)C(=O)/C(=C/c1ccc(Cl)cc1)CC2 | > 10 µM (inactive) | > 10 µM (inactive) | > 10 µM (inactive) | > 10 µM (inactive) | > 10 µM (inactive) | > 10 µM (inactive) | > 10 µM (inactive) | > 10 µM (inactive) | > 10 µM (inactive) | > 10 µM (inactive) | > 10 µM (inactive) | > 10 µM (inactive) | > 10 µM (inactive) | > 10 µM (inactive) | > 10 µM (inactive) | > 10 µM (inactive) | > 10 µM (inactive) | > 10 µM (inactive) | > 10 µM (inactive) | –
CN1CCCOC(c2ccc(Cl)cc2)O1 (configuration not stated) | > 100 µM (inactive) | > 100 µM (inactive) | > 100 µM (inactive) | > 100 µM (inactive) | > 100 µM (inactive) | > 100 µM (inactive) | > 100 µM (inactive) | > 100 µM (inactive) | > 100 µM (inactive) | > 100 µM (inactive) | – | > 100 µM (inactive) | > 100 µM (inactive) | > 100 µM (inactive) | > 100 µM (inactive) | > 100 µM (inactive) | > 100 µM (inactive) | > 100 µM (inactive) | > 100 µM (inactive) | > 100 µM (inactive)
COC(=O)C1=C(C(=O)OC)SC(=C2c3ccsc3-c3sccc32)S1 | 65.8 µM (inactive) | 39.4 µM (inactive) | 27.4 µM (inactive) | 34 µM (inactive) | > 100 µM (inactive) | > 100 µM (inactive) | 40.6 µM (inactive) | 25.9 µM (inactive) | 36.2 µM (inactive) | 24.3 µM (inactive) | 76.9 µM (inactive) | 69 µM (inactive) | 17.6 µM (inactive) | 40.6 µM (inactive) | 67.6 µM (inactive) | 99.1 µM (inactive) | 47.5 µM (inactive) | 40.3 µM (inactive) | 37.2 µM (inactive) | –

Source: ChEMBL document CHEMBL1201862, “PubChem BioAssay data set” (2004)
